In ChEMBL document CHEMBL1136329, “A theoretical investigation on DPPH radical-scavenging mechanism of edaravone” (Bioorg Med Chem Lett, 2003) one finds IC50 data, which are given here for 1 compound.

A short description of this experiment: Scavenging activity against DPPH. Format: functional. On the technique in general: DPPH is a stable violet radical that fades when it is reduced.

As to `CC1=NN(c2ccccc2)C(=O)C1` [EDARAVONE], the IC50 amounted to 29.3 uM l-1.
